Experimental data taken from ChEMBL document CHEMBL1201862, “PubChem BioAssay data set” (2004).
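Exposure lasted 48 hours, with cells grown in 96-well plates and compounds tested at five concentrations. Abbreviation: GI50, concentration required for 50% inhibition of growth.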 Activity calls are given as the source filed them. Rule as the data show it: active = GI50 up to about 1.1 µM and inactive = higher.

How the values were obtained:
Experiment in all cases: NCI-60 cell line screen, 48 h
HCC 2998 = tested on: HCC 2998
RXF 393 = tested on: RXF 393
UACC-62 = tested on: UACC-62
TK-10 = tested on: TK-10
PC-3 = tested on: PC-3
LOX IMVI = tested on: LOX IMVI
EKVX = tested on: EKVX
SF-268 = tested on: SF-268
Hs-578T = tested on: Hs-578T
SK-MEL-5 = tested on: SK-MEL-5
OVCAR-8 = tested on: OVCAR-8
RPMI-8226 = tested on: RPMI-8226
UO-31 = tested on: UO-31
IGROV-1 = tested on: IGROV-1
CAKI-1 = tested on: CAKI-1
COLO 205 = tested on: COLO 205
HL-60 = tested on: HL-60
NCI-H226 = tested on: NCI-H226
SNB-75 = tested on: SNB-75

SMILES	GI50 (HCC 2998)	GI50 (RXF 393)	GI50 (UACC-62)	GI50 (TK-10)	GI50 (PC-3)	GI50 (LOX IMVI)	GI50 (EKVX)	GI50 (SF-268)	GI50 (Hs-578T)	GI50 (SK-MEL-5)	GI50 (OVCAR-8)	GI50 (RPMI-8226)	GI50 (UO-31)	GI50 (IGROV-1)	GI50 (CAKI-1)	GI50 (COLO 205)	GI50 (HL-60)	GI50 (NCI-H226)	GI50 (SNB-75)
CC(C)c1ccc(NC(=S)NC(=O)c2ccccc2)cc1	16 µM (inactive)	18.6 µM (inactive)	13.6 µM (inactive)	18.2 µM (inactive)	36.5 µM (inactive)	15.3 µM (inactive)	30.8 µM (inactive)	21.4 µM (inactive)	31.8 µM (inactive)	13.4 µM (inactive)	32.3 µM (inactive)	23.7 µM (inactive)	3.94 µM (inactive)	25.4 µM (inactive)	20.5 µM (inactive)	16.3 µM (inactive)	3.82 µM (inactive)	–	–
CC(C)(C)c1cc2c(O)c(c1)C(c1ccccc1)c1cc(C(C)(C)C)cc(c1O)Cc1cc(C(C)(C)C)cc(c1O)C(c1ccccc1)c1cc(C(C)(C)C)cc(c1O)C2 (centres undefined)	> 100 µM (inactive)	> 100 µM (inactive)	> 100 µM (inactive)	> 100 µM (inactive)	> 100 µM (inactive)	> 100 µM (inactive)	> 100 µM (inactive)	> 100 µM (inactive)	> 100 µM (inactive)	> 100 µM (inactive)	> 100 µM (inactive)	–	> 100 µM (inactive)	> 100 µM (inactive)	> 100 µM (inactive)	> 100 µM (inactive)	28.7 µM (inactive)	–	–
OCCN(CCO)c1ccc2c(-c3ccccc3)cc(N(CCO)CCO)nc2n1	> 100 µM (inactive)	> 100 µM (inactive)	> 100 µM (inactive)	> 100 µM (inactive)	> 100 µM (inactive)	–	> 100 µM (inactive)	> 100 µM (inactive)	> 100 µM (inactive)	> 100 µM (inactive)	> 100 µM (inactive)	> 100 µM (inactive)	> 100 µM (inactive)	> 100 µM (inactive)	> 100 µM (inactive)	> 100 µM (inactive)	–	> 100 µM (inactive)	> 100 µM (inactive)
Cc1ccc(S(=O)(=O)n2cc(C#N)c(C#N)c2)cc1	24.3 µM (inactive)	32.3 µM (inactive)	17.3 µM (inactive)	38.3 µM (inactive)	28.9 µM (inactive)	22.8 µM (inactive)	30.2 µM (inactive)	26.6 µM (inactive)	24.7 µM (inactive)	21.3 µM (inactive)	31.8 µM (inactive)	–	26.9 µM (inactive)	31.1 µM (inactive)	26.1 µM (inactive)	28.6 µM (inactive)	26.5 µM (inactive)	–	32.7 µM (inactive)
O=C(Nc1ccccc1)c1cc2c(cc1Cl)Sc1nccn1S2(=O)=O	18.5 µM (inactive)	17.7 µM (inactive)	17.6 µM (inactive)	34.5 µM (inactive)	20.1 µM (inactive)	9.2 µM (inactive)	24.2 µM (inactive)	25.2 µM (inactive)	22.8 µM (inactive)	12.9 µM (inactive)	58.2 µM (inactive)	19.8 µM (inactive)	34 µM (inactive)	20.2 µM (inactive)	0.266 µM (active)	15.3 µM (inactive)	15.8 µM (inactive)	–	17.7 µM (inactive)
O=C(CCc1ccc(O)cc1)NCCCNC(=O)CCc1ccc(O)cc1	> 100 µM (inactive)	> 100 µM (inactive)	> 100 µM (inactive)	–	> 100 µM (inactive)	> 100 µM (inactive)	–	> 100 µM (inactive)	> 100 µM (inactive)	> 100 µM (inactive)	> 100 µM (inactive)	> 100 µM (inactive)	> 100 µM (inactive)	> 100 µM (inactive)	> 100 µM (inactive)	> 100 µM (inactive)	–	> 100 µM (inactive)	24.7 µM (inactive)
Clc1cc2nn(C3CCCCO3)nc2cc1Cl (centres undefined)	> 100 µM (inactive)	> 100 µM (inactive)	> 100 µM (inactive)	> 100 µM (inactive)	> 100 µM (inactive)	–	> 100 µM (inactive)	–	> 100 µM (inactive)	> 100 µM (inactive)	> 100 µM (inactive)	–	> 100 µM (inactive)	> 100 µM (inactive)	> 100 µM (inactive)	> 100 µM (inactive)	–	> 100 µM (inactive)	> 100 µM (inactive)
Nc1nc(N)c2ncn(Cc3ccccc3)c2n1	> 100 µM (inactive)	> 100 µM (inactive)	> 100 µM (inactive)	> 100 µM (inactive)	> 100 µM (inactive)	–	21.8 µM (inactive)	> 100 µM (inactive)	> 100 µM (inactive)	> 100 µM (inactive)	> 100 µM (inactive)	> 100 µM (inactive)	> 100 µM (inactive)	> 100 µM (inactive)	> 100 µM (inactive)	> 100 µM (inactive)	–	> 100 µM (inactive)	0.0295 µM (active)
COc1cc(OC)cc(OCc2ccc3nc(-c4ccccc4)c(Cl)nc3c2)c1	32.7 µM (inactive)	–	32.4 µM (inactive)	20.2 µM (inactive)	37.6 µM (inactive)	43.1 µM (inactive)	27 µM (inactive)	30.5 µM (inactive)	27.3 µM (inactive)	14.5 µM (inactive)	25.8 µM (inactive)	33.4 µM (inactive)	66.2 µM (inactive)	21.1 µM (inactive)	11.5 µM (inactive)	25.2 µM (inactive)	54.6 µM (inactive)	–	15.8 µM (inactive)
C=CC(O)(CBr)CCC(Br)C(C)(C)Cl (centres undefined)	> 10 µM (inactive)	> 10 µM (inactive)	–	> 10 µM (inactive)	> 10 µM (inactive)	–	> 10 µM (inactive)	> 10 µM (inactive)	> 10 µM (inactive)	> 10 µM (inactive)	> 10 µM (inactive)	> 10 µM (inactive)	> 10 µM (inactive)	> 10 µM (inactive)	> 10 µM (inactive)	> 10 µM (inactive)	–	> 10 µM (inactive)	> 10 µM (inactive)
N#Cc1c(-c2ccc([N+](=O)[O-])cc2)c(C#N)c(=O)n(NS(=O)(=O)c2ccccc2)c1S	40.6 µM (inactive)	33 µM (inactive)	20.7 µM (inactive)	> 100 µM (inactive)	28.8 µM (inactive)	18.4 µM (inactive)	31.3 µM (inactive)	30 µM (inactive)	20.8 µM (inactive)	10.8 µM (inactive)	33.2 µM (inactive)	20.5 µM (inactive)	–	19.2 µM (inactive)	66.4 µM (inactive)	46.5 µM (inactive)	–	65 µM (inactive)	39.6 µM (inactive)
COc1ccc(/N=N/c2c(C)c(C#N)c(=S)n(C3OC(CO)C(O)C(O)C3O)c2-c2ccccc2)cc1 (centres undefined)	88.5 µM (inactive)	28 µM (inactive)	18.8 µM (inactive)	39.5 µM (inactive)	17.1 µM (inactive)	27.8 µM (inactive)	–	44.9 µM (inactive)	21.5 µM (inactive)	11.5 µM (inactive)	–	36.1 µM (inactive)	39.4 µM (inactive)	30.4 µM (inactive)	24.2 µM (inactive)	47.5 µM (inactive)	58.2 µM (inactive)	–	17.2 µM (inactive)
